Assay [1] addresses wild type MLL1 four-member complex (MLL1-4C) (Homo sapiens, UniProt P61964). As to the kind of experiment: MLL1 LC-MS assay (SAH production). The format is biochemical. The conditions noted are these: read-out: (b) MLL LCMS Peptide Val.v.1 Qualified AC50. Summed up: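 MLL1-4C (30 nM final) was preincubated 20 min with compound (3-fold dilutions, 8 or 12 points) and SAM in Tris-HCl pH 8.0 buffer. H3K4me0 peptide (histone H3[1-21]-biotin) was then added, giving final 2.5 μM SAM and 10 μM substrate, and reactions ran 120 min at rt. After TFA/d4-SAH quench, SAH was quantified by LC-MS/MS and IC50 fitted from control-normalised activity.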

The next assay has as its target WDR5 (Homo sapiens, UniProt P61964). As to the kind of experiment: WDR5 HTRF binding assay. As to conditions: read-out: (a) WDR5 HTRF Pep Val v.1[Inhibitor/IC50]Qualified AC50. In outline:
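6 nM WDR5 and 20 nM biotin-MLL1 WIN peptide (3762-3773) were incubated with compound (12-point, 3-fold dilutions) in pH 7.5 Hepes/NaCl/DTT buffer for 20 min at rt. Streptavidin-APC plus anti-His-Eu were then added for 1 hr, with HTRF read at 665/615. IC50 was fit from control-normalized activity; the counter assay used 15 nM biotin-PEG-His peptide.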
Background: Time-resolved FRET reads energy transfer from a long-lived donor to a nearby acceptor.

The subject of a further assay is MV4-11 cells. Description: MV4-11 6-day cell growth CTG (CellTiter-Glo) assay. The format is cell-based. As to conditions: Homo sapiens, MV4-11, 144 h, 6 days, read-out: (c) MLL/WDR5 cell proliferation assay//MLL/WDR5 proliferation MV4:11 Qualified AC50. In outline: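 Exponentially growing MV4-11 AML cells (RPMI 1640, 10% FBS) seeded at 300 cells/well with 12-point 1:3 compound dilutions, top final concentration 50 μM. Viability read by CellTiter-Glo luminescence after 6 days at 37° C; % inhibition vs DMSO-only wells fitted to dose-response for IC50.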
For orientation: ATP-based viability assays read luminescence as a measure of living cells.

In US20220289732A1, “HETEROCYCLIC WDR5 INHIBITORS AS ANTI-CANCER COMPOUNDS” (NOVARTIS AG, priority 2019, published 2022) one finds AC50 and IC50 data, which are given here for 22 molecules.

SMILES strings stand for the structures.

Consider `CCOc1cc(CN2CCc3c(cc(CCN(C)CC)cc3-c3cn(C)c(=O)cc3C)C2=O)ncc1C#N` [Example 135, 6-((5-(1,4-dimethyl-6-oxo-1,6-dihydropyridin-3-yl)-7-(2-(ethyl(methyl)amino)ethyl)-1-oxo-3,4-dihydroisoquinolin-2(1H)-yl)methyl)-4-ethoxynicotinonitrile], for which the AC50 (in assay [1]; with MV4-11 cells) was 10 to 1000 nM each time. On WDR5, the IC50 was below 10 nM.
For the molecule `CNc1nccn1Cc1cc(CN2CC(F)(F)C2)c2c(c1)C(=O)N([C@@H](C)c1cnc(F)c(OC)c1)CC2` [Example 34, (S)-5-((3,3-difluoroazetidin-1-yl)methyl)-2-(1-(6-fluoro-5-methoxypyridin-3-yl)ethyl)-7-((2-(methylamino)-1H-imidazol-1-yl)methyl)-3,4-dihydroisoquinolin-1(2H)-one], the AC50 (in assay [1]; in the assay with MV4-11 cells) was 10 to 1000 nM in each case. In addition, the IC50 at WDR5 lay in the range of 10 to 1000 nM.
Regarding `CCOc1cc([C@H](C)N2CCc3c(cc(Cn4ccnc4C)cc3-c3c[nH]c(=O)cc3C(F)(F)F)C2=O)ncc1C#N` [Example 269, (S)-4-Ethoxy-6-(1-(7-((2-methyl-1H-imidazol-1-yl)methyl)-1-oxo-5-(6-oxo-4-(trifluoromethyl)-1,6-dihydropyridin-3-yl)-3,4-dihydroisoquinolin-2(1H)-yl)ethyl)nicotinonitrile], the AC50 (in assay [1]; in the assay on MV4-11 cells) was 10 to 1000 nM each time. For the same molecule, the IC50 at WDR5 is below 10 nM.
For `CCOc1cc(CN2CCc3c(cc(CCN(C)CC)cc3-c3cc(OC)ncc3C)C2=O)ncc1C#N` [Example 164, 4-ethoxy-6-((7-(2-(ethyl(methyl)amino)ethyl)-5-(2-methoxy-5-methylpyridin-4-yl)-1-oxo-3,4-dihydroisoquinolin-2(1H)-yl)methyl)nicotinonitrile], the AC50 (in assay [1]; with MV4-11 cells) was 10 to 1000 nM in each case. Besides, on WDR5, the IC50 is below 10 nM.
For the molecule `CNc1nccn1Cc1ccc2c(c1)C(=O)N([C@@H](C)c1cnc(F)c(OC)c1)CC2` (single isomer, unassigned) [Example 94], the AC50 (in assay [1]; in the assay with MV4-11 cells) was 10 to 1000 nM throughout. For the same molecule, the IC50 at WDR5 is 10 to 1000 nM.
In the case of `CCOc1cc([C@H](C)N2CCc3c(cc(Cn4ccnc4C)cc3-c3nc(C(F)F)nn3C)C2=O)ncc1C#N` [Example 293], the AC50 (in assay [1]; with MV4-11 cells) was 10 to 1000 nM throughout. Moreover, on WDR5, the IC50 was 10 to 1000 nM.
For the molecule `CCOc1cc(CN2CCc3c(Br)cc(Cn4ccnc4NC)cc3C2=O)cnc1C#N` [Example 2, 5-((5-bromo-7-((2-(methylamino)-1H-imidazol-1-yl)methyl)-1-oxo-3,4-dihydroisoquinolin-2(1H)-yl)methyl)-3-ethoxypicolinonitrile], the AC50 (in assay [1]; with MV4-11 cells) was 10 to 1000 nM throughout. Besides, the IC50 on WDR5 was 10 to 1000 nM.
For `CCOc1cc(C(C)N2CCc3c(cc(CCN(C)CC)cc3C(O)C(C)(C)C)C2=O)ncc1C#N` (stereo not drawn) [compound 257], the AC50 (in assay [1]; in the assay with MV4-11 cells) was 10 to 1000 nM each time. Also, the IC50 at WDR5 fell in the range of 10 to 1000 nM.
As for `CCOc1cc(C(C)N2CCc3c(cc(CCN(C)CC)cc3-c3cc(F)ncc3C)C2=O)ncc1C#N` (stereo not drawn) [Example 143, 4-ethoxy-6-(1-(7-(2-(ethyl(methyl)amino)ethyl)-5-(2-fluoro-5-methylpyridin-4-yl)-1-oxo-3,4-dihydroisoquinolin-2(1H)-yl)ethyl)nicotinonitrile], the AC50 (in assay [1]; in the assay on MV4-11 cells) was 10 to 1000 nM throughout. At WDR5, the IC50 lay in the range of 10 to 1000 nM.
In the case of `CCOc1cc(CN2CCc3c(cc(Cn4ccnc4C)cc3-c3cn(C)nc3C)C2=O)ncc1C#N` [Example 263, 6-((5-(1,3-Dimethyl-1H-pyrazol-4-yl)-7-((2-methyl-1H-imidazol-1-yl)methyl)-1-oxo-3,4-dihydroisoquinolin-2(1H)-yl)methyl)-4-ethoxynicotinonitrile], the AC50 (in assay [1]; with MV4-11 cells) was 10 to 1000 nM throughout. For the same molecule, the IC50 on WDR5 lay within 10 to 1000 nM.
As for `CCOc1cc(C(C)N2CCc3c(cc(CCN(C)CC)cc3-c3cc4[nH]cnc4nc3C)C2=O)ncc1C#N` (stereo not drawn) [Example 206, 4-ethoxy-6-(1-(7-(2-(ethyl(methyl)amino)ethyl)-5-(5-methyl-1H-imidazo[4,5-b]pyridin-6-yl)-1-oxo-3,4-dihydroisoquinolin-2(1H)-yl)ethyl)nicotinonitrile], the AC50 (in assay [1]; with MV4-11 cells) was 10 to 1000 nM in each case. Besides, the IC50 on WDR5 lay in the range of 10 to 1000 nM.
In the case of `CCOc1cc([C@H](C)N2CCc3c(cc(Cn4cncc4C)cc3-c3cn(C)nc3C)C2=O)ncc1C#N` [Example 289], the figures for the AC50 (in assay [1]; with MV4-11 cells) were 10 to 1000 nM and 1000 to 25000 nM, respectively. In addition, the IC50 at WDR5 is below 10 nM.
Taken in the same sequence, the figures for `CCOc1cc([C@H](C)N2CCc3c(cc(Cn4ccnc4C)cc3-c3cn(C)c(=O)cc3Cl)C2=O)ncc1C#N` [Example 292] were 10 to 1000 nM, 10 to 1000 nM and 10 to 1000 nM.
Taken in the same sequence, the figures for `CNc1nccn1Cc1cc2c(c(-c3c[nH]nc3C)c1)CCN(Cc1ccc(F)c(OC)c1)C2=O` [Example 55, 2-(4-fluoro-3-methoxybenzyl)-5-(3-methyl-1H-pyrazol-4-yl)-7-((2-(methylamino)-1H-imidazol-1-yl)methyl)-3,4-dihydroisoquinolin-1(2H)-one] were 10 to 1000 nM, 10 to 1000 nM and 10 to 1000 nM.
On the same counts, the results for `CCOc1cc([C@H](C)N2CCc3c(cc(Cn4cc(C)nc4C)cc3-c3cn(C)c(=O)cc3C)C2=O)ncc1C#N` [Example 274] are 10 to 1000 nM, 10 to 1000 nM and below 10 nM.
On to `CCOc1cc(CN2CCc3c(CN(C)C)cc(Cn4ccnc4NC)cc3C2=O)cnc1C#N` [Example 24, 5-((5-((dimethylamino)methyl)-7-((2-(methylamino)-1H-imidazol-1-yl)methyl)-1-oxo-3,4-dihydroisoquinolin-2(1H)-yl)methyl)-3-ethoxypicolinonitrile], for which the AC50 (in assay [1]; in the assay on MV4-11 cells) was 10 to 1000 nM in each case. The IC50 at WDR5 lay in the range of 10 to 1000 nM.
Turning to `CCOc1cc(CN2CCc3c(cc(CCN(C)CC)cc3-c3cc(N)ncc3C)C2=O)ncc1C#N` [Example 180, 6-((5-(2-amino-5-methylpyridin-4-yl)-7-(2-(ethyl(methyl)amino)ethyl)-1-oxo-3,4-dihydroisoquinolin-2(1H)-yl)rnethyl)-4-ethoxynicotinonitrile], the AC50 (in assay [1]; in the assay on MV4-11 cells) was 10 to 1000 nM in each case. For the same molecule, at WDR5, the IC50 was below 10 nM.
As to `CCOc1cc([C@H](C)N2CCc3c(cc(CCN4C[C@@H](O)[C@H]4C)cc3-c3cn(C)c(=O)cc3C)C2=O)ncc1C#N` [Example 216], the AC50 (in assay [1]; with MV4-11 cells) was 10 to 1000 nM in each case. At WDR5, the IC50 was below 10 nM.
On to `CCOc1cc([C@H](C)N2CCc3c(cc(CCN4C[C@@H](O)[C@H]4C)cc3-c3ccc(F)nc3C)C2=O)ncc1C#N` [Example 217], for which the AC50 (in assay [1]; with MV4-11 cells) was 10 to 1000 nM throughout. The IC50 on WDR5 is below 10 nM.
For the molecule `CCOc1cc(CN2CCc3c(cc(CCN(C)CC)cc3-c3cc(C)nnc3C)C2=O)ncc1C` [Example 212, 5-(3,6-dimethylpyridazin-4-yl)-2-((4-ethoxy-5-methylpyridin-2-yl)methyl)-7-(2-(ethyl(methyl)amino)ethyl)-3,4-dihydroisoquinolin-1(2H)-one], the AC50 (in assay [1]; in the assay on MV4-11 cells) was 10 to 1000 nM throughout. Also, the IC50 at WDR5 was below 10 nM.
As to `CNc1nccn1Cc1cc2c(c(-c3cc(CO)cnc3Cl)c1)CCN(Cc1cccc(OC)c1)C2=O` [Example 52, 5-(2-chloro-5-(hydroxymethyl)pyridin-3-yl)-2-(3-methoxybenzyl)-7-((2-(methylamino)-1H-imidazol-1-yl)methyl)-3,4-dihydroisoquinolin-1(2H)-one], the AC50 (in assay [1]; with MV4-11 cells) was 10 to 1000 nM in each case. On WDR5, the IC50 is below 10 nM.
For the molecule `CCOc1cc([C@H](C)N2CCc3c(CN4CC(F)C4)cc(Cn4ccnc4NC)cc3C2=O)ncc1F` [Example 39, (S)-2-(1-(4-ethoxy-5-fluoropyridin-2-yl)ethyl)-5-((3-fluoroazetidin-1-yl)methyl)-7-((2-(methylamino)-1H-imidazol-1-yl)methyl)-3,4-dihydroisoquinolin-1(2H)-one], the AC50 (in assay [1]; with MV4-11 cells) was 10 to 1000 nM throughout. On WDR5, the IC50 was in the range of 10 to 1000 nM.
